Assay results taken from patent US8394834B2, “Pyrrolidines as NK3 receptor antagonists” (Hoffman-La Roche Inc., priority 2009, dated 2013).
pKi: −log10 of the molar value.

target: T1, recombinant human NK3 receptor (Homo sapiens, UniProt P29371); assay: [3H]SR142801 competition binding assay; conditions: hNK3 receptor, membranes from HEK293 cells transiently expressing the receptor, [3H]SR142801 radioligand
T1 construct: expressed in transfected cells; host or cells: HEK293 cells (transient expression), membranes
T1 sequence (P29371 1-465): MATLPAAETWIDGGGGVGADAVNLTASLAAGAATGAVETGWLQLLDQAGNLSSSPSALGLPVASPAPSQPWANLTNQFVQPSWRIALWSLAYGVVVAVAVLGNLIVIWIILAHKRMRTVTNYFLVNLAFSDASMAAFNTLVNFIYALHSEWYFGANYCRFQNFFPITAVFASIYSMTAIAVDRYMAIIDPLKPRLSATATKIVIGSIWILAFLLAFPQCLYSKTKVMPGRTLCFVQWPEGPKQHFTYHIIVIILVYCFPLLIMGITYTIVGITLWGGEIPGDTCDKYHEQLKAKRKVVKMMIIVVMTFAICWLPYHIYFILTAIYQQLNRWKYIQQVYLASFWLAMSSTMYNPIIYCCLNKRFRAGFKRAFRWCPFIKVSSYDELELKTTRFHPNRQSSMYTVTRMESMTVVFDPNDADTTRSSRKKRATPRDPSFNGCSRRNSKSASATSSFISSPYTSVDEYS
Description: [^3H]SR142801 Competition Binding Assay
hNK3 receptor binding experiment were performed using [^3H]SR142801 (Catalog No. TRK1035, specific activity: 74.0 Ci/mmol, Amersham, GE Healthcare UK limited, Buckinghamshire, UK) and membrane isolated from HEK293 cells transiently expressing recombinant human NK3 receptor. After thawing, the membrane homogenates were centrifuged at 48,000×g for 10 min at 4° C., the pellets were resuspended in the 50 mM Tris-HCl, 4 mM MnCl2, 1 μM phosphoramidon, 0.1% BSA binding buffer at pH 7.4 to a final assay concentration of 5 μg protein/well. For inhibition experiments, membranes were incubated with [^3H]SR142801 at a concentration equal to KD value of radioligand and 10 concentrations of the inhibitory compound (0.0003-10 μM) (in a total reaction volume of 500 μl) for 75 min at room temperature (RT). At the end of the incubation, membranes were filtered onto unitfilter (96-well white microplate with bonded GF/C filter preincubated 1 h in 0.3% PEI+0.3% BSA, Packard BioScience, Meriden, Conn.) with a Filtermate 196 harvester (Packard BioScience) and washed 4 times with ice-cold 50 mM Tris-HCl, pH 7.4 buffer. Nonspecific binding was measured in the presence of 10 μM SB222200 for both radioligands. The radioactivity on the filter was counted (5 min) on a Packard Top-count microplate scintillation counter with quenching correction after addition of 45 μl of microscint 40 (Can berra Packard S. A., Zürich, Switzerland) and shaking for 1 h. Inhibition curves were fitted according to the Hill equation: […]), where nH=slope factor using Excel-fit 4 software (Microsoft). IC50 values were derived from the inhibition curve and the affinity constant (Ki) values were calculated using the Cheng-Prussoff equation Ki=IC50/(1+[L]/KD) where [L] is the concentration of radioligand and KD is its dissociation constant at the receptor, derived from the saturation isotherm. All experiments were performed in duplicate and the mean±standard error (SEM) of the individual Ki values was calculated.

SMILES	pKi
C[C@H](Oc1ccc(C#N)cn1)[C@H]1CN(C(=O)C2CCN(c3ccc(C#N)cn3)CC2)C[C@@H]1c1ccc(F)c(F)c1 [Example 19, 4-[(3R,48)-3-[1-((S)-5-Cyano-pyridin-2-yloxy)-ethyl]-4-(3,4-difluoro-phenyl)-pyrrolidine-1-carbonyl]-3,4,5,6-tetrahydro-2H-[1,2′]bipyridinyl-5′-carbonitrile]	8.92
Cc1ccc(N2CCC(C(=O)N3C[C@H]([C@H](C)Oc4ccc(F)cn4)[C@@H](c4ccc(Cl)cc4)C3)CC2)nn1 [Example 12, {(3S,4R)-3-(4-Chloro-phenyl)-4-[1-((S)-5-fluoro-pyridin-2-yloxy)-ethyl]-pyrrolidin-1-yl}-[1-(6-methyl-pyridazin-3-yl)-piperidin-4-yl]-methanone]	8.68
C[C@H](Oc1ccc(Cl)cn1)[C@H]1CN(C(=O)C2CCN(c3ccc(C#N)cn3)CC2)C[C@@H]1c1ccc(F)c(F)c1 [Example 20, 4-[(3R,4S)-3-[1-((S)-5-Chloro-pyridin-2-yloxy)-ethyl]-4-(3,4-difluoro-phenyl)-pyrrolidine-1-carbonyl]-3,4,5,6-tetrahydro-2H-[1,2′]bipyridinyl-5′-carbonitrile]	9.05
COc1ccc(N2CCC(C(=O)N3C[C@H]([C@H](C)Oc4ccc(Cl)cn4)[C@@H](c4ccc(Cl)cc4)C3)CC2)nn1 [Example 14, {(3S,4R)-3-(4-Chloro-phenyl)-4-[1-((S)-5-chloro-pyridin-2-yloxy)-ethyl]-pyrrolidin-1-yl}-[1-(6-methoxy-pyridazin-3-yl)-piperidin-4-yl]-methanone]	8.92
Cc1ccc(N2CCC(C(=O)N3C[C@H]([C@H](C)Oc4ccc(C#N)cn4)[C@@H](c4ccc(F)c(F)c4)C3)CC2)nn1 [Example 21, 6-((S)-1-{(3R,4S)-4-(3,4-Difluoro-phenyl)-1-[1-(6-methyl-pyridazin-3-yl)-piperidine-4-carbonyl]-pyrrolidin-3-yl}-ethoxy)-nicotinonitrile]	8.55
COc1ccc(N2CCC(C(=O)N3C[C@H]([C@H](C)Oc4ccc(Cl)cn4)[C@@H](c4ccc(Cl)cc4)C3)CC2)cn1 [Example 15, {(3S,4R)-3-(4-Chloro-phenyl)-4-[1-((S)-5-chloro-pyridin-2-yloxy)-ethyl]-pyrrolidin-1-yl}-(6′-methoxy-3,4,5,6-tetrahydro-2H-[1,3,′]bipyridinyl-4-yl)-methanone]	9.30
Cc1nnc(N2CCC(C(=O)N3C[C@H]([C@H](C)Oc4ccc(Cl)cn4)[C@@H](c4ccc(Cl)cc4)C3)CC2)o1 [Example 18, {(3S,4R)-3-(4-Chloro-phenyl)-4-[1-((S)-5-chloro-pyridin-2-yloxy)-ethyl]-pyrrolidin-1-yl}-[1-(5-methyl-[1,3,4]oxadiazol-2-yl)-piperidin-4-yl]-methanone]	8.51
C[C@H](Oc1ccc(Cl)cn1)[C@H]1CN(C(=O)C2CCN(c3ccc(C(F)(F)F)cn3)CC2)C[C@@H]1c1ccc(Cl)cc1 [Example 4, {(3S,4R)-3-(4-Chloro-phenyl)-4-[1-((S)-5-chloro-pyridin-2-yloxy)-ethyl]-pyrrolidin-1-yl}-(5′-trifluoromethyl-3,4,5,6-tetrahydro-2H-[1,2′]bipyridinyl-4-yl)-methanone]	9.10
C[C@H](Oc1ccc(Cl)cn1)[C@H]1CN(C(=O)C2CCN(c3ncccn3)CC2)C[C@@H]1c1ccc(Cl)cc1 [Example 3, {(3S,4R)-3-(4-Chloro-phenyl)-4-[1-((S)-5-chloro-pyridin-2-yloxy)-ethyl]-pyrrolidin-1-yl}-(1-pyrimidin-2-yl-piperidin-4-yl)-methanone]	8.68
C[C@H](Oc1ccc(F)cn1)[C@H]1CN(C(=O)C2CCN(c3ccc(C#N)cn3)CC2)C[C@@H]1c1ccc(Cl)cc1 [Example 7, 4-{(3S,4R)-3-(4-Chloro-phenyl)-4-[1-((S)-5-fluoro-pyridin-2-yloxy)-ethyl]-pyrrolidine-1-carbonyl}-3,4,5,6-tetrahydro-2H-[1,2′]bipyridinyl-5′-carbonitrile]	8.92

Next, values leading:

pKi	SMILES
8.82	C[C@H](Oc1ccc(Cl)cn1)[C@H]1CN(C(=O)C2CCN(c3cccc(C#N)n3)CC2)C[C@@H]1c1ccc(Cl)cc1 [Example 17, 4-{(3S,4R)-3-(4-Chloro-phenyl)-4-[1-((S)-5-chloro-pyridin-2-yloxy)-ethyl]-pyrrolidine-1-carbonyl}-3,4,5,6-tetrahydro-2H-[1,2′]bipyridinyl-6′-carbonitrile]
9.30	C[C@H](Oc1ccc(Cl)cn1)[C@H]1CN(C(=O)C2CCN(c3cc(C#N)ccn3)CC2)C[C@@H]1c1ccc(Cl)cc1 [Example 11, 4-{(3S,4R)-3-(4-Chloro-phenyl)-4-[1-((S)-5-chloro-pyridin-2-yloxy)-ethyl]-pyrrolidine-1-carbonyl}-3,4,5,6-tetrahydro-2H-[1,2′]bipyridinyl-4′-carbonitrile]
8.72	C[C@H](Oc1ccc(Cl)cn1)[C@H]1CN(C(=O)C2CCN(c3cnccn3)CC2)C[C@@H]1c1ccc(Cl)cc1 [Example 2, {(3S,4R)-3-(4-Chloro-phenyl)-4-[1-((S)-5-chloro-pyridin-2-yloxy)-ethyl]-pyrrolidin-1-yl}-(1-pyrazin-2-yl-piperidin-4-yl)-methanone]
9.15	COc1ccc(N2CCC(C(=O)N3C[C@H]([C@H](C)Oc4ccc(Cl)cn4)[C@@H](c4ccc(Cl)cc4)C3)CC2)nc1 [Example 13, {(3S,4R)-3-(4-Chloro-phenyl)-4-[1-((S)-5-chloro-pyridin-2-yloxy)-ethyl]-pyrrolidin-1-yl}-(5′-methoxy-3,4,5,6-tetrahydro-2H-[1,2′]bipyridinyl-4-yl)-methanone]
9.30	C[C@H](Oc1ccc(Cl)cn1)[C@H]1CN(C(=O)C2CCN(c3ccc(C#N)nn3)CC2)C[C@@H]1c1ccc(Cl)cc1 [Example 6, 6-(4-{(3S,4R)-3-(4-Chloro-phenyl)-4-[1-((S)-5-chloro-pyridin-2-yloxy)-ethyl]-pyrrolidine-1-carbonyl}-piperidin-1-yl)-pyridazine-3-carbonitrile]
8.89	C[C@H](Oc1ccc(Cl)cn1)[C@H]1CN(C(=O)C2CCN(c3ccncn3)CC2)C[C@@H]1c1ccc(Cl)cc1 [Example 8, {(3S,4R)-3-(4-Chloro-phenyl)-4-[1-((S)-5-chloro-pyridin-2-yloxy)-ethyl]pyrrolidin-1-yl}-(1-pyrimidin-4-yl-piperidin-4-yl)-methanone]
9.10	C[C@H](Oc1ccc(F)cn1)[C@H]1CN(C(=O)C2CCN(c3ccc(C#N)nn3)CC2)C[C@@H]1c1ccc(Cl)cc1 [Example 16, 6-(4-{(3S,4R)-3-(4-Chloro-phenyl)-4-[1-((S)-5-fluoro-pyridin-2-yloxy)-ethyl]-pyrrolidine-1-carbonyl}-piperidin-1-yl)-pyridazine-3-carbonitrile]
9.40	C[C@H](Oc1ccc(Cl)cn1)[C@H]1CN(C(=O)C2CCN(c3ccc(C#N)cn3)CC2)C[C@@H]1c1ccc(Cl)cc1 [Example 1, 4-{(3S,4R)-3-(4-Chloro-phenyl)-4-[1-((S)-5-chloro-pyridin-2-yloxy)-ethyl]-pyrrolidine-1-carbonyl}-3,4,5,6-tetrahydro-2H-[1,2′]bipyridinyl-5′-carbonitrile]
8.21	C[C@H](Oc1ccc(Cl)cn1)[C@H]1CN(C(=O)C2CCN(c3ncccc3C#N)CC2)C[C@@H]1c1ccc(Cl)cc1 [Example 10, 4-{(3S,4R)-3-(4-Chloro-phenyl)-4-[1-((S)-5-chloro-pyridin-2-yloxy)-ethyl]-pyrrolidine-1-carbonyl}-3,4,5,6-tetrahydro-2H-[1,2′]bipyridinyl-3′-carbonitrile]
9.30	CC(=O)c1ccc(N2CCC(C(=O)N3C[C@H]([C@H](C)Oc4ccc(Cl)cn4)[C@@H](c4ccc(Cl)cc4)C3)CC2)nc1 [Example 9, 1-(4-{(3S,4R)-3-(4-Chloro-phenyl)-4-[1-((S)-5-chloro-pyridin-2-yloxy)-ethyl]-pyrrolidine-1-carbonyl}-3,4,5,6-tetrahydro-2H-[1,2′]bipyridinyl-5′-yl)-ethanone]
